Among the data in ChEMBL document CHEMBL1201862, “PubChem BioAssay data set” (2004) are EC50, AC50 and IC50 values, retold here.

One experiment relates to Streptococcus. In words: GAS UMAA2166 growth inhibition – luminescence, BacTiterGlo, counter-screen for streptokinase expression inhibitor project, dose response (AID 1915).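 Also: potency for reduction of bacterial viability or growth.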 It is filed as functional, organism-based.
Experiment [1] can be described thus: NIH3T3 cell viability loss – ATP luminescence, mouse fibroblasts, counter-screen, dose response (AID 2010).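 Also: cells exposed to compound for about 90 hours before reading.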 The format is functional, cell-based. (Counterscreens check selectivity or assay interference.)
Experiment [2] can be described thus: Trypanosoma cruzi growth suppression in host cells – NIH3T3 host cells, beta-gal luminescence, confirmation (AID 2044).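 Also: intracellular parasites grown in NIH/3T3 mouse fibroblasts as host cells; luminescent beta-galactosidase reporter signal from transgenic T. cruzi replicating inside host cells; inhibitors lower the luminescence signal.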 It is filed as functional, cell-based.
In the next experiment the target is T1, Streptokinase A (Streptococcus pyogenes serotype M1, UniProt P10520).
T1 sequence (P10520 whole entry): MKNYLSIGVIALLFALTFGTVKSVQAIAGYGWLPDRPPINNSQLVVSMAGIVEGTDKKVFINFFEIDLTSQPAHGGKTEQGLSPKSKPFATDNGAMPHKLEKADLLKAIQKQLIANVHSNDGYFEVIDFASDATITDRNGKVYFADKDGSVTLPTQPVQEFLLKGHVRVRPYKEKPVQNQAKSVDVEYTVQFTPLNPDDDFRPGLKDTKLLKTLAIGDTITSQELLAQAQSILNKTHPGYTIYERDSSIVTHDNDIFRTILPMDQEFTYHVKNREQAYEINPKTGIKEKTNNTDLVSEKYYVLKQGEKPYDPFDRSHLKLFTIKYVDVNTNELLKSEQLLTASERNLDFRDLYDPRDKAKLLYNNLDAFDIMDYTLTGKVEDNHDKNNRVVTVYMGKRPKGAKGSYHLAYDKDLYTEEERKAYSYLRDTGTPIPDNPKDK
In words: viability-normalized secreted streptokinase activity reduction – plasminogen activation absorbance, OD405, dose response (AID 1914).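 Also: secreted streptokinase activity via plasminogen activation per viability signal from cell pellet.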 It is filed as functional, Streptococcus pyogenes M1 GAS.

In experiment [3] the test system is Streptococcus sp. 'group A'. In words: Streptococcus pyogenes SK(-)GAS viability under kanamycin – luminescence, BacTiterGlo, confirmation, counter-screen for streptokinase expression inhibitor project, dose response (AID 1900). The format is functional, organism-based.
The target of a further experiment is Paired box protein Pax-8 (Homo sapiens, UniProt Q06710). Kind of experiment: PAX8 transcriptional activity inhibition in RMG-I – RMG-I cells, luciferase, cherry-pick, dose response (AID 687027).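 Also: luciferase reporter driven by Pax8 target thyroperoxidase promoter measured by SteadyGlo luminescence.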 The format is functional, cell-based.
Sequence of Paired box protein Pax-8 (Q06710 whole entry): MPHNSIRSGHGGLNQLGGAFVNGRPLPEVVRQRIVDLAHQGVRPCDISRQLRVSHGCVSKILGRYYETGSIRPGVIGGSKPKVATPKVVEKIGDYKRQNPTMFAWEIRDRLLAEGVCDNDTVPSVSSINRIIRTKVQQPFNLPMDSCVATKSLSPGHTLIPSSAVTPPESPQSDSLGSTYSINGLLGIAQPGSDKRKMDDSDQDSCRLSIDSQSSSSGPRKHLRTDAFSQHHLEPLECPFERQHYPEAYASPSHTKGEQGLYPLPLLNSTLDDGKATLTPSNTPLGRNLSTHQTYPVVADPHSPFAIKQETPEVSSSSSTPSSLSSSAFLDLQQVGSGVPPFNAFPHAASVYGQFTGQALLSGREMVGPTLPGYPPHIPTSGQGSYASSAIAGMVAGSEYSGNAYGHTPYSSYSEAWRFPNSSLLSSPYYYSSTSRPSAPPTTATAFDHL
Experiment [4] addresses T2, Rac GTPase-activating protein 1 (Homo sapiens, UniProt Q9H0H5).
T2 sequence (Q9H0H5 whole entry): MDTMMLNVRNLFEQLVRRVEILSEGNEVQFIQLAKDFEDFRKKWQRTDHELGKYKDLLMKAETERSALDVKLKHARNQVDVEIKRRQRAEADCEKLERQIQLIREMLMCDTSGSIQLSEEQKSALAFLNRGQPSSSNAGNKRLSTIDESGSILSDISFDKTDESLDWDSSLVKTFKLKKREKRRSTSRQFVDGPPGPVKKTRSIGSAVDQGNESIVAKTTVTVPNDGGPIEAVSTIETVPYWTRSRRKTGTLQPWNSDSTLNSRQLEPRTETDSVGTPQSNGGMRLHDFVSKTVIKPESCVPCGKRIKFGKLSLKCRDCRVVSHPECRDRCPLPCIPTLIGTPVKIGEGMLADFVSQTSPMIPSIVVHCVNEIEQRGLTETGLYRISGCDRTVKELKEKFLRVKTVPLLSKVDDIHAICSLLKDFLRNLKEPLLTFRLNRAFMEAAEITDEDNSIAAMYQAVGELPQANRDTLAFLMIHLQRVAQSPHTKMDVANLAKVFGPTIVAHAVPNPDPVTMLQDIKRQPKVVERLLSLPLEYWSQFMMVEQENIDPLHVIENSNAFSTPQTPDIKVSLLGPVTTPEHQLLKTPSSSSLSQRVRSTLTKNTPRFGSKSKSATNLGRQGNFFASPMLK
Kind of experiment: blockers of MgcRacGAP-driven Rac1 GTP hydrolysis – biochemical, ADP Hunter fluorescence, primary and confirmatory, confirmation (AID 624330). It is filed as functional.

Experiment [5] is described as follows: Luminescence Cell-Based Dose Retest to Confirm Inhibitors of Cancer Stem Cells. [Related pubchem assays (depositor defined):AID2717, AID2721]. It is filed as functional. The conditions noted are these: Homo sapiens.

Activity calls are given as the source filed them. Rule as the data show it, for most assays here: actives have a measured EC50 and inactives only a lower limit.

As usually defined, the EC50 is the midpoint of the concentration-response curve. Turning to `COc1ccc(OC)c(C2C=C(C34CC5CC(CC(C5)C3)C4)N=C(S)N2)c1` (stereo not given), the half-maximal effective concentration (EC50) was > 150 µM (not active) with Streptococcus; > 30 µM (not active) in experiment [1]; 1.15 µM (active) in experiment [2]; 14.7 µM (active) at Streptokinase A; 11.2 µM (active) in experiment [3].
For `c1ccc(-c2nc(N3CCN(c4ccccc4)CC3)nc(-n3ccnc3)n2)cc1`, the EC50 in experiment [1] was > 60 µM (not active); in experiment [2], 3.53 µM (active).
Broadly, the AC50 is the concentration giving half of the maximal activity seen. Turning to `COc1ccc(S(=O)(=O)N2CCCCN3[C@H](C2)[C@H](c2ccc(C#CC(C)C)cc2)[C@@H]3CO)cc1`, the AC50 at Paired box protein Pax-8 was 9.44 µM (active).
Turning to `CC12CCC(C(=O)NNC(=O)c3ccccc3)(OC1=O)C2(C)C` (stereo not given), the EC50 (in the experiment with Streptococcus; on Streptokinase A; in experiment [3]) was > 150 µM (not active) each time.
As to `CS(=O)(=O)c1ccc2nc(NC(=O)c3ccc(NS(=O)(=O)c4ccc(F)c(F)c4)cc3)sc2c1`, the EC50 was 5.61 µM (active) with Streptococcus and 0.318 µM (active) in experiment [3].
In general, IC50 refers to the concentration at which inhibition is half-maximal. As for `C=CCc1cc(Cl)ccc1OCCn1ccnc1`, in experiment [4], the IC50 was 139 µM (active).
On to `Cc1cc(C)cc(NC(=O)C(NCCN2CCOCC2)c2ccccc2)c1` (stereo not given), for which, in experiment [4], the IC50 was 48.4 µM (active).
For `Cc1ccc2nc(-c3ccc(NC(=O)CNC4CC4)cc3)sc2c1`, the EC50 was > 150 µM (not active) in the experiment with Streptococcus, > 150 µM (not active) at Streptokinase A and 14.4 µM (active) in experiment [3].
As to `O=C(NC(=S)Nc1cccc(Cl)c1N1CCCCC1)c1ccc2c(c1)OCCO2`, the AC50 in experiment [5] is 0.707 µM (active). In addition, the half-maximal effective concentration (EC50) was > 150 µM (not active) in the experiment on Streptococcus, 48 µM (active) on Streptokinase A and 80.4 µM (active) in experiment [3].
With `C[C@@H]1CCCCO[C@H](CN(C)C(=O)NC2CCCCC2)[C@@H](C)CN([C@@H](C)CO)C(=O)c2cc(NC(=O)Nc3ccc(C(F)(F)F)cc3)ccc2O1`, on Paired box protein Pax-8, the AC50 was 4.98 µM (active).
Take `O=C(COC(=O)c1ccccc1Br)Nc1nnc(-c2ccccc2)o1`: the EC50 with Streptococcus was 19.2 µM (active); at Streptokinase A it was > 150 µM (not active); in experiment [3], 0.834 µM (active).
Take `CC(C)Cc1nc2oc3c(Cl)ncnc3c2c2c1CCCC2`: in experiment [5], the AC50 was 3.3 µM (active).
Turning to `Cc1ccc(-c2nnn(CC(=O)N3c4ccccc4CCc4ccccc43)n2)cc1`, the EC50 in experiment [1] is > 60 µM (not active); in experiment [2], 3.26 µM (active).
For `NC(=O)c1cc([N+](=O)[O-])ccc1NCc1ccc(O)cc1`, the AC50 in experiment [5] is 2.92 µM (active).
On to `Cc1cccc(C)c1OCCCCN1CCNCC1`, for which the IC50 in experiment [4] was 122 µM (active).
Take `CCOc1ccc(CN2CCN(Cc3cccc4c3OCO4)CC2CCO)cc1` (stereo not given): the values for the concentration giving a half-maximal response (EC50) in experiment [1] and in experiment [2] were > 60 µM (not active) and 0.208 µM (active), respectively.
Consider `C=CCc1cc(/C=N/c2ccc(N3CCOCC3)cc2)cc(OCC)c1O`, for which the IC50 in experiment [4] is 13.1 µM (active).
The same measure, in the same setting: next, `COc1ccccc1OCC#CCN1CCCC(C)C1` (stereo not given): 182 µM (active).
On to `O=S(=O)(Nc1ccc(O)c(Sc2nc3ccccc3s2)c1)c1cccc2ccccc12`, for which, in experiment [5], the AC50 is 6.45 µM (active). Besides, the EC50 in the experiment with Streptococcus is 7.08 µM (active); on Streptokinase A, > 150 µM (not active); in experiment [3], 4.05 µM (active).
With `CC(C)(C)c1ccc(NC(=O)Cn2cnc3cc([N+](=O)[O-])ccc3c2=O)cc1`, the 50% effective concentration (EC50) was 22.1 µM (active) in experiment [1] and 1 µM (active) in experiment [2].
Turning to `Cc1ccc(-n2cc(CN3CCC(CO)(Cc4cccc(C(F)(F)F)c4)CC3)cn2)cc1`, the EC50 in experiment [1] is > 60 µM (not active); in experiment [2], 0.896 µM (active).
With `Cc1ccc(NC(S)=NN=C(S)Nc2cccc(C(F)(F)F)c2)cc1`, the EC50 with Streptococcus is 110 µM (active); on Streptokinase A, > 150 µM (not active); in experiment [3], 5.24 µM (active).
Take `Cc1cnccc1CN(C)Cc1cn(C)nc1-c1ccc(Oc2ccccc2)cc1`: the values for the 50% effective concentration (EC50) in experiment [1] and in experiment [2] were > 30 µM (not active) and 1.76 µM (active), respectively.
Take `Cc1c(C(=O)NNC(=S)NCc2ccc(Cl)cc2)oc2ccccc12`: the 50% effective concentration (EC50) at Streptokinase A is 22.5 µM (active).
With `Cc1ccc(C(c2nnnn2Cc2ccccc2)N2CC=C(c3ccc(F)cc3)CC2)cc1` (stereo not given), the EC50 is 20.8 µM (active) in experiment [1] and 1.95 µM (active) in experiment [2].
For the compound `Nc1c(C(=O)c2ccccc2)sc(Nc2ccccc2)c1S(=O)(=O)c1ccccc1`, the EC50 in experiment [1] is > 60 µM (not active); in experiment [2] it was 1.47 µM (active).
Consider `C[C@@H]1CCCCO[C@@H](CN(C)Cc2ccc(Cl)c(Cl)c2)[C@H](C)CN([C@H](C)CO)C(=O)c2cc(NS(=O)(=O)c3ccccc3)ccc2O1`, for which the AC50 on Paired box protein Pax-8 is 7.95 µM (active).
Regarding `Cc1ccc(CN2CCC(Oc3cccc(C(=O)N(C)CCN(C)C)c3)CC2)cc1C`, the EC50 was 26 µM (active) in experiment [1] and < 0.1 µM (active) in experiment [2].
For `COc1ccc(S(=O)(=O)N[C@@H](C)C(=O)OCC(=O)Nc2cc3oc4ccccc4c3cc2OC)cc1`, the 50% effective concentration (EC50) in the experiment on Streptococcus was 16.4 µM (active); at Streptokinase A it was > 150 µM (not active); in experiment [3] it was 1.39 µM (active).
Take `CCOC(=O)c1c(-c2cccs2)csc1NC(=O)c1ccncc1`: the EC50 was > 30 µM (not active) in experiment [1] and 2.14 µM (active) in experiment [2].
Regarding `COc1cccc(CC2(CO)CCCN(Cc3sc(N4CCCC4)nc3Cl)C2)c1` (stereo not given), the EC50 in experiment [1] was > 30 µM (not active); in experiment [2], 1.74 µM (active).
`COc1cc2c(cc1OC)C1(CCCC1)C(N)=C2C#N`: the IC50 in experiment [4] is 38 µM (active).
Same read-out and setting: next, `CC(=O)c1c(Nc2ccc3c(c2)OCCO3)oc(C)cc1=O`: 54 µM (active).
For the compound `Nc1nc(Nc2cccc(Cl)c2)nc(NCc2ccco2)c1[N+](=O)[O-]`, the EC50 in the experiment on Streptococcus is 16.4 µM (active); on Streptokinase A it was > 150 µM (not active); in experiment [3], 7.28 µM (active).
`O=C(NN=Cc1ccc(O)cc1)c1ccccc1NS(=O)(=O)c1cccs1`: in experiment [4], the IC50 is 74.4 µM (active).
In the case of `CCOc1cc(/C=C2\SC(N)=NC2=O)ccc1O`, in experiment [4], the IC50 was 47 µM (active).
`C/C(=N\Nc1cc(C(F)(F)F)ccc1Cl)c1ccccc1O`: the AC50 in experiment [5] was 83.1 µM (active).
On to `CCOC(=O)c1c(NC(=O)c2cccs2)sc2c1CCN(C(=O)OCC)C2`, for which, in experiment [3], the EC50 was 12 µM (active).
Regarding `Cc1c(C(=O)NN=C(S)NCc2ccc(Cl)cc2)oc2ccccc12`, the concentration giving a half-maximal response (EC50) in the experiment with Streptococcus is > 150 µM (not active); in experiment [3], 7.12 µM (active).
Consider `Cc1cccc(OCC(=O)Nc2ccccc2N2CCCCC2)c1C`, for which the EC50 in the experiment with Streptococcus was 13.4 µM (active); on Streptokinase A it was 5.39 µM (active); in experiment [3], 9.25 µM (active).
As to `C/C(=N\Nc1nc2ccccc2[nH]1)c1ccc(Cl)s1`, in experiment [4], the IC50 is 42 µM (active).
As to `COc1ccc(N2CCN(C(C)C(=O)N3CCCC3)CC2)cc1` (stereo not given), the IC50 in experiment [4] is 72.4 µM (active).
As for `Cc1ccc(C)c(S(=O)(=O)N2CCN(CC(=O)NC(=O)NCc3ccccc3)CC2)c1`, the EC50 was > 60 µM (not active) in experiment [1] and 0.72 µM (active) in experiment [2].
With `C[C@@H]1CCCCO[C@H](CN(C)Cc2ccc(C(F)(F)F)cc2)[C@H](C)CN([C@H](C)CO)C(=O)c2cc(NS(=O)(=O)c3cccs3)ccc2O1`, on Paired box protein Pax-8, the AC50 was 11.5 µM (active).
Still for that read-out and setting: next, `C[C@@H]1CN([C@@H](C)CO)C(=O)c2cc(N(C)C)ccc2O[C@@H]1CN(C)Cc1ccc(Oc2ccccc2)cc1`: 19.1 µM (active).
Take `CCOc1cccc2cc(C(=O)Oc3ccc(OC)cc3)c(=O)oc12`: the IC50 in experiment [4] was 52.5 µM (active).
On to `Cc1ccn2c(NCc3ccccc3)c(-c3cccc(SC4CCCCC4)c3)nc2c1`, for which the AC50 in experiment [5] is 4.44 µM (active).
